From paper PMC11078746 (Nature, 2024)
“And” between values parts separate entries of the source, which are not always exact repeats. Identical values can stand only once.

How the values were obtained:
hERG = hERG (Homo sapiens, UniProt Q12809); assay: hERG binding (patch clamp)
[1] = tested on: CYP (all isoforms tested); assay: CYP inhibition; format: in vitro ADME
PXR = PXR (Homo sapiens, UniProt O75469); assay: PXR activation; format: in vitro ADME
MSI CDX and PDX models = assay: In vivo screen in a panel of CDX and PDX models; design: species or system mouse; settings: 60 or 120 mg per kg once daily
Method: (§1) All animal studies were conducted in accordance with ethics and procedures covered by permit BS-2275 and BS-1975 issued by the Kantonales Veterinäramt Basel-Stadt and in strict adherence to guidelines of the Eidgenössisches Tierschutzgesetz and the Eidgenössische Tierschutzverordnung, Switzerland. All animal studies were approved by the internal ethics committee. All animals had access to food and water ad libitum and were identified with transponders. They were housed in a specific-pathogen-free facility in IVC racks under a 12 h–12 h light–dark cycle. To establish cell-line-derived xenograft models, 6–7-week-old female athymic nude (Crl:NU(NCr)-Foxn1^nu) or SCID-BEIGE (CB17.Cg-PrkdcscidLystbg-J/Crl) mice from Charles River were engrafted subcutaneously with 5 million tumour cells in HBSS (H6648, Sigma-Aldrich). For SNU-407, Lovo, IM95, RL95.2, Ishikawa and IGROV-1, the cells were concentrated in 50% Matrigel (354234, Corning). Patient-derived xenografts were induced and expanded by transplantation as previously described. […] For the efficacy experiment, mice were randomized into groups (n = 5–6) for a mean tumour size of 100–150 mm^3. […] Blood samples were collected on day 7 and 91. […] Tumour responses are reported with the measures of tumour volumes from the treatment start. […] Animals were randomized (n = 3) and tumour samples were collected at 0, 1, 4, 8 and 24 h on the first day and then collected 4 h after the last treatment on day 3, 8, 10, 14 (including a 24 h timepoint), 17 and 21. Tumours were excised, weighed, either frozen in liquid nitrogen and cryogenic dry pulverized with the CryoPrep system (model CP-02, Covaris) or processed to FFPE after fixation. […] On day 12, blood samples were collected for PK analysis. On the last day (3 h after the last treatment), tumours were excised, weighed, frozen in liquid nitrogen and cryogenic dry pulverized for PD analysis.

HCT116 [2] = assay: CFA 10-14 day clonogenic assay; format: cell-based; settings: Homo sapiens, HCT-116
KM12 = assay: CFA 10-14 day clonogenic assay; format: cell-based; settings: Homo sapiens
IM95 [3] = assay: CFA 10-14 day clonogenic assay; format: cell-based; settings: Homo sapiens
TOV21G = assay: CFA 10-14 day clonogenic assay; format: cell-based; settings: Homo sapiens
CAL33 = assay: CFA 10-14 day clonogenic assay; format: cell-based; settings: Homo sapiens, CAL-33
HEC1A = assay: CFA 10-14 day clonogenic assay; format: cell-based; settings: Homo sapiens, HEC-1-A
HCT116 [4] = assay: 4 day proliferation assay (CellTiter-Glo)
LOVO = assay: 4 day proliferation assay (CellTiter-Glo); settings: Homo sapiens, 96 h, read-out: 4 day assay GI50
IM95 [5] = assay: 4 day proliferation assay (CellTiter-Glo); settings: Homo sapiens, IM95, 96 h, read-out: 4 day assay GI50
LIM2405 = assay: 4 day proliferation assay (CellTiter-Glo); settings: Homo sapiens, 96 h, read-out: 4 day assay GI50
IGROV1 = assay: 4 day proliferation assay (CellTiter-Glo); settings: Homo sapiens, IGROV-1, 96 h, read-out: 4 day assay GI50
DLD-1 (HCT15) = assay: 4 day proliferation assay (CellTiter-Glo); settings: Homo sapiens, 96 h, read-out: 4 day assay GI50
SNU1 = assay: 4 day proliferation assay (CellTiter-Glo); settings: Homo sapiens, SNU1, 96 h, read-out: 4 day assay GI50
SW48 xenografts = assay: SW48 xenograft efficacy, compound 3 p.o. twice daily; format: in vivo, mouse; settings: for Tumour volume (TVol): single mouse, listed as WRNi #4
Method: as §1

PXR, sequence (O75469 whole entry, species assumed): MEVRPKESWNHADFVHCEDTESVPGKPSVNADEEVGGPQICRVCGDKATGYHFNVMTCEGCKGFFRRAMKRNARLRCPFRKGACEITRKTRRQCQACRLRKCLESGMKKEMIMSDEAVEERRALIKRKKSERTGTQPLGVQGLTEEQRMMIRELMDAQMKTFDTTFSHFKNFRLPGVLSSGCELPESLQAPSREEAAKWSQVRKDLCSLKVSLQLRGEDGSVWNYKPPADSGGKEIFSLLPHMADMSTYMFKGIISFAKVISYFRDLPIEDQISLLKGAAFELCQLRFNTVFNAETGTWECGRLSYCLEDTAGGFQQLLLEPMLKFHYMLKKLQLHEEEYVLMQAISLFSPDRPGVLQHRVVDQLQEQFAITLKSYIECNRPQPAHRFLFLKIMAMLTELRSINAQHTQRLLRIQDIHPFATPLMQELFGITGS
hERG, sequence (Q12809 whole entry, canonical isoform): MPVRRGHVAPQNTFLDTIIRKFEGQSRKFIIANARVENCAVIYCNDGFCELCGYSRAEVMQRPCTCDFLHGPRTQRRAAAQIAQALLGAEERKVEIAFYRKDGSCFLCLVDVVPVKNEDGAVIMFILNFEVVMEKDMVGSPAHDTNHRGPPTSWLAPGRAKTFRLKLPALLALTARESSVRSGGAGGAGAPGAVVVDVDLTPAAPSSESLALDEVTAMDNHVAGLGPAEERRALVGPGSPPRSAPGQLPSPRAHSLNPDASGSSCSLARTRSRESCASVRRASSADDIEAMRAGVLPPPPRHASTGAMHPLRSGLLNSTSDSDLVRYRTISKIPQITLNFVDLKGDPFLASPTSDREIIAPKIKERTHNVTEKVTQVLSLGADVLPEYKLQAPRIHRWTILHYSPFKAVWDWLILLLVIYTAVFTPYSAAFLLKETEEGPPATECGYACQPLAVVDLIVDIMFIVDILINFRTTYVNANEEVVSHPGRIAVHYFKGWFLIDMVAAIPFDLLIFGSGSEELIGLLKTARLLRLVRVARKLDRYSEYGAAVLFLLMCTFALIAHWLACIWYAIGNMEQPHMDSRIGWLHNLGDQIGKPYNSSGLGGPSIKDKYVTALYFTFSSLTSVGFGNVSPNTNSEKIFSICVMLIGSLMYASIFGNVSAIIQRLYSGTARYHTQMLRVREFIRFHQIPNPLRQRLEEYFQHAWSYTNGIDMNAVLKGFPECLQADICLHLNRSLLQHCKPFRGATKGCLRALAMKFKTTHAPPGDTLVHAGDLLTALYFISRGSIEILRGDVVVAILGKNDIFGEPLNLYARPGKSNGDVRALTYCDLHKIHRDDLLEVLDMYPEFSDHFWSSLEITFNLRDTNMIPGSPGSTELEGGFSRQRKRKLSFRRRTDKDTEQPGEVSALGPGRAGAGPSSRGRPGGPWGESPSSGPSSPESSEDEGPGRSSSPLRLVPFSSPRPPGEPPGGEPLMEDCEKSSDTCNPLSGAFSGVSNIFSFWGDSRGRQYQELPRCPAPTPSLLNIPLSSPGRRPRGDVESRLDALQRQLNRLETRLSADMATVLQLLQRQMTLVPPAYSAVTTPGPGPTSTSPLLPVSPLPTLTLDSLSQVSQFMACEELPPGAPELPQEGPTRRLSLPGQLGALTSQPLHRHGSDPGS

CCc1c(N2CCN(C(=O)c3ncnc(C)c3O)CC2)c(=O)n2nc(C3=CCOCC3)nc2n1CC(=O)Nc1ccc(C(F)(F)F)cc1Cl [HRO761]
IC50 (hERG): > 30 µM
IC50 [1]: > 25 µM
PXR activation (PXR): No PXR
complete responses (MSI CDX and PDX models): 9%
disease control rate (MSI CDX and PDX models): approximately 70%
partial responses (MSI CDX and PDX models): 30%
stable diseases (MSI CDX and PDX models): 35%
GI50 (HCT116 [2]): 0.059 µM
GI50 (KM12): 0.1 µM
GI50 (IM95 [3]): 0.255 µM
GI50 (TOV21G): 1.31 µM
GI50 (CAL33): ≥ 10 µM
GI50 (HEC1A): ≥ 10 µM
GI50 (HCT116 [4]; Homo sapiens, HCT-116, 96 h, read-out: 4 day assay GI50, HCT116): 0.116 µM
GI50 (HCT116 [4]; read-out: 4 day assay GI50, HCT116): 0.143 µM
GI50 (LOVO): 1.25 µM
GI50 (IM95 [5]): 2.01 µM
GI50 (LIM2405): 1.53 µM
GI50 (IGROV1): 2.75 µM
GI50 (DLD-1 (HCT15)): ≥ 10 µM
GI50 (SNU1): ≥ 10 µM

CCc1c(N2CCN(C(=O)c3ncccc3O)CC2)c(=O)n2nc(C3=CCOCC3)nc2n1CC(=O)Nc1ccc(C(F)(F)F)cc1C [compound 3]
Mean TVol (SW48 xenografts; 15mg/kg BID, day 0): 186.30 mm3
Tumour volume (TVol) (SW48 xenografts; 15mg/kg BID, day 0): 125.21 mm3 and 176.57 mm3 and 158.22 mm3 and 139.01 mm3 and 236.47 mm3 and 285.36 mm3 and 183.25 mm3
Mean TVol (SW48 xenografts; 15mg/kg BID, day 4): 363.88 mm3
Tumour volume (TVol) (SW48 xenografts; 15mg/kg BID, day 4): 335.90 mm3 and 349.83 mm3 and 278.60 mm3 and 343.34 mm3 and 317.21 mm3 and 499.75 mm3 and 422.53 mm3
Mean TVol (SW48 xenografts; 15mg/kg BID, day 6): 401.70 mm3
Tumour volume (TVol) (SW48 xenografts; 15mg/kg BID, day 6): 446.30 mm3 and 500.68 mm3
Mean TVol (SW48 xenografts; 15mg/kg BID, day 8): 483.57 mm3
Mean TVol (SW48 xenografts; 15mg/kg BID, day 11): 653.78 mm3
Tumour volume (TVol) (SW48 xenografts; 15mg/kg BID, day 11): 649.03 mm3 and 796.01 mm3 and 408.88 mm3 and 697.95 mm3 and 448.35 mm3 and 901.30 mm3 and 674.92 mm3
Mean TVol (SW48 xenografts; 15mg/kg BID, day 13): 737.71 mm3
Tumour volume (TVol) (SW48 xenografts; 15mg/kg BID, day 13): 506.43 mm3 and 897.69 mm3 and 575.84 mm3 and 720.03 mm3 and 530.25 mm3 and 1055.13 mm3 and 878.60 mm3
Mean TVol (SW48 xenografts; 50mg/kg BID, day 0): 186.25 mm3
Tumour volume (TVol) (SW48 xenografts; 50mg/kg BID, day 0): 104.69 mm3 and 206.32 mm3 and 158.46 mm3 and 258.06 mm3 and 184.54 mm3 and 140.44 mm3 and 251.24 mm3
Mean TVol (SW48 xenografts; 50mg/kg BID, day 4): 286.97 mm3
Tumour volume (TVol) (SW48 xenografts; 50mg/kg BID, day 4): 175.53 mm3 and 349.15 mm3 and 205.03 mm3 and 394.61 mm3 and 285.83 mm3 and 247.36 mm3 and 351.29 mm3
Mean TVol (SW48 xenografts; 50mg/kg BID, day 6): 317.35 mm3
Tumour volume (TVol) (SW48 xenografts; 50mg/kg BID, day 6): 143.51 mm3 and 438.53 mm3 and 201.74 mm3 and 334.71 mm3 and 301.07 mm3 and 265.24 mm3 and 536.64 mm3
Mean TVol (SW48 xenografts; 50mg/kg BID, day 8): 332.70 mm3
Mean TVol (SW48 xenografts; 50mg/kg BID, day 11): 410.64 mm3
Tumour volume (TVol) (SW48 xenografts; 50mg/kg BID, day 11): 304.71 mm3 and 545.58 mm3 and 199.89 mm3 and 340.76 mm3 and 293.59 mm3 and 390.68 mm3 and 799.25 mm3
Mean TVol (SW48 xenografts; 50mg/kg BID, day 13): 453.33 mm3
Tumour volume (TVol) (SW48 xenografts; 50mg/kg BID, day 13): 281.31 mm3 and 743.48 mm3 and 206.77 mm3 and 483.85 mm3 and 288.10 mm3 and 511.66 mm3 and 658.13 mm3
tumour response (SW48 xenografts; 150 mg per kg orally twice daily): stable disease
Mean TVol (SW48 xenografts; 150mg/kg BID, day 0): 186.70 mm3
Tumour volume (TVol) (SW48 xenografts; 150mg/kg BID, day 0 post 1st dose): 121.54 mm3 and 271.88 mm3 and 115.87 mm3 and 175.12 mm3 and 222.88 mm3 and 177.21 mm3 and 222.42 mm3
Mean TVol (SW48 xenografts; 150mg/kg BID, day 4): 226.51 mm3
Tumour volume (TVol) (SW48 xenografts; 150mg/kg BID, day 4): 200.34 mm3 and 361.96 mm3 and 112.57 mm3 and 220.17 mm3 and 244.46 mm3 and 160.01 mm3 and 286.05 mm3
Mean TVol (SW48 xenografts; 150mg/kg BID, day 6): 224.94 mm3
Tumour volume (TVol) (SW48 xenografts; 150mg/kg BID, day 6): 174.76 mm3 and 361.01 mm3 and 147.06 mm3 and 189.44 mm3 and 231.82 mm3 and 170.17 mm3 and 300.33 mm3
Mean TVol (SW48 xenografts; 150mg/kg BID, day 8): 196.74 mm3
Mean TVol (SW48 xenografts; 150mg/kg BID, day 11): 203.13 mm3
Tumour volume (TVol) (SW48 xenografts; 150mg/kg BID, day 11): 147.98 mm3 and 318.20 mm3 and 124.24 mm3 and 228.02 mm3 and 223.70 mm3 and 145.76 mm3 and 234.03 mm3
Mean TVol (SW48 xenografts; 150mg/kg BID, day 13): 172.38 mm3
Tumour volume (TVol) (SW48 xenografts; 150mg/kg BID, day 13): 158.96 mm3 and 252.06 mm3 and 121.12 mm3 and 163.89 mm3 and 181.33 mm3 and 166.20 mm3 and 163.13 mm3
Reg (SW48 xenografts; 150 mg/kg p.o. twice daily): 4 % Reg
